How the values were obtained:
non-transfected cells = test: Dose-response experiments for cell toxicity; type: cell-based; conditions: five days, 0.5 µM resveratrol, 2.5 µM sirtinol
Method: (§1) Drug treatment. Resveratrol and Sirtinol were dissolved in DMSO. In the initial cell treatment experiments, we performed dose-response experiments, using non-transfected cells, to define the most appropriate doses to be used for the drugs. […] The drugs or vehicle as a control were applied on transfected cells 24 h post-transfection. Cells (in the 12-well plate) were then incubated for 24 h before analysis using a Leica automated microscope stage.

[1] = tested on: COS-7 cells overexpressing GFP-PABPN1 fusion proteins with 0, 10, or 17 Alas; test: Cell survival by live microscopy of GFP positive cells; type: cell-based; conditions: day 5; 0.5 µM resveratrol, 2.5 µM sirtinol
Method: (§2) Cell culture and transfection. Twenty-four hours before transfection, COS-7 cells were seeded in Dulbeco's modified Eagle's medium (DMEM) containing 10% fetal calf serum at a concentration of 2 x 10^5 cells per well in 12-well plates suited for the automated live microscopy. The cells were transfected with plasmid DNA (1 µg) pre-complexed with the Plus reagent and diluted in Lipofectamine reagent according to the manufacturer's instructions. To check the protein expression before and after the drug treatment, parallel plates were prepared for Western blotting.
as §1
Assessment of cell survival. Cell survival was assessed using live microscopy as previously described^12. Briefly, 12-well plates containing transfected cells treated or not treated with drugs were placed on a live stage microscope equipped with a digital camera, CO2 incubation chamber, and a motorized X-Y-axis stage and connected to the Openlab software (Improvision). The microscopic robotic stage allows parallel tracking of multiple fields, both within a single well and in multiple wells. […] The system was set to memorize three different fields of cells (from each separate well) and control the stage return to the same position at pre-fixed intervals. The microscope allowed us to return back to the same point and count the same cells in the field. Cell survival was monitored every 24 h for five consecutive days, with Day 1 corresponding to 24 h post-transfection before the drug treatment. On average, 150 cells per field per construct were counted. Cell viability was assayed by analysis of GFP positive cells. The average of cell survival of each group of cells was scored for the three different chosen fields and percent rescue calculated as ((test - control)/control*100). Three independent experiments were performed. ANOVA tests and Tukey's Multiple Comparison Test were used for statistics.

[2] = tested on: C. elegans transgenics expressing human PABPN1 with 10 or 13 Alas; test: Motility drug assay, number of whole body bends; type: in vivo; conditions: for genetic dependence of the effect on abnormal motility: PABPN1-A13 animals with null mutation of sir-2.1 (ok434), daf-16 (mu86) or aak-2 (ok524); for abnormal motility (frequency of body bends) produced by mutant PABPN1: PABPN1-A13 animals, sirtinol and splitomicin at day 5, resveratrol at day 3 of adulthood; for motility in controls: PABPN1-A10 / control animals
Method: Motility assays. 1-5 day old adult hermaphrodites were laid on confluent OP-50-1. The animals were then scored immediately for whole body bends for a duration of 20 seconds as previously described^23, or photos of the tracks were taken using a 2,5X objective on a Zeiss microscope and their amplitudes measured using the Meta View software. 100 animals were scored per experiment and three independent assays performed. Percent rescue of the body bends phenotype was calculated as ((control - test)/control*100) and percent rescue of the sinusoid wave phenotype as ((test - control)/control*100). ANOVA tests and Tukey's Multiple Comparison Tests were used for statistics.
(§3) Drug assays. Synchronized populations of L1 larvae expressing GFP and PABPN1 with 10 or 13 Alas were obtained by hypochlorite extraction. To test for muscle nuclei loss, animals were grown in 96-well microtiter plates in 50 µl liquid culture medium with sodium butyrate, resveratrol, sirtinol or splitomicin for 65 hours at 20°C, transferred to agarose pads on slides, and scored for cell nuclei loss at 10X-63X using a Zeiss fluorescence microscope (Axioplan Imaging II). 60 worms were scored per point and three independent assays performed. To test for motility, the synchronized L1 larvae were grown on NGM plates containing drugs until they became 1-5 day old adults. Animals were transferred to new plates every other day to keep them separate from progeny, then transferred to confluent OP-50.1 bacteria test plates and assessed for the number of whole body bends as described above (see Motility assays).

[3] = tested on: C. elegans transgenics expressing human PABPN1 with 10 or 13 Alas; test: Muscle nuclei loss (MNL) drug assay in transgenic nematodes, counting GFP positive muscle cell nuclei; type: in vivo; conditions: for muscle nuclei loss (MNL) in controls: PABPN1-A10 / control animals; for genetic dependence of the effect on MNL: PABPN1-A13 animals with null mutation of sir-2.1 (ok434), daf-16 (mu86) or aak-2 (ok524); for muscle nuclei loss (MNL) caused by PABPN1-A13 expression: PABPN1-A13 animals, 65 hours at 20°C in liquid culture, maximal achievable rescue 28 %
Method: Analysis of muscle cells. Muscle cells in transgenic hermaphrodites were examined for loss of nuclei through counting GFP positive cells. Percent rescue was calculated as ((test - control)/control*100). Muscle cells in transgenic hermaphrodites were examined for PABPN1 expression through fluorescent microscopy. Whole animals were permeabilized and stained with the PABPN1 antiserum VEADa-14 (Centre de Recherche du CHUM, Montreal; 1:50), and fluorescent microscopy was conducted on a Zeiss microscope (Axioplan Imaging II). Observations of the structure of body wall muscles in young adult transgenics after Phalloidin-Rhodamin (FluoProbes) staining were performed as previously described^51. ANOVA tests and Tukey's Multiple Comparison Test were used for statistics.
as §3

[4] = tested on: COS-7 cells transfected with normal (10 Alas) and mutant (17 Alas) PABPN1; test: Histone acetylation analysis by western blot; type: cell-based; conditions: COS-7 cells expressing normal or mutant PABPN1, 500 µM or 5 mM for the last 24h
Method: as §2
Histone acetylation analysis. COS-7 cells transfected with normal (10 Alas) and mutant (17 Alas) PABPN1 cDNAs were plated for 48h and treated for the last 24h with 500 µM or 5 mM sodium butyrate. Controls included non-butyrate-treated cells. Cells were lysed in 10 mM Tris, 50 mM sodium bisulfite, 1% triton X-100, 10 mM magnesium chloride, 8.6% sucrose, pH 6.5 and a cocktail of proteases inhibitors for 10 min. Proteins were extracted under acidic conditions as described^53. Ten micrograms of whole cell extract were analysed by western blot. […] Signals were quantified using NIH IMAGE 1.62 and t tests used for statistical analysis.

Row | Compound | cell toxicity (non-transfected cells) | cell survival in cells overexpressing GFP-PABPN1 with 0 and 10 Alas [1] | cell survival in mutant PABPN1-A17 cells [1] | genetic dependence of the effect on abnormal motility [2] | abnormal motility (frequency of body bends) produced by mutant PABPN1 [2] | muscle nuclei loss (MNL) in controls [3] | genetic dependence of the effect on MNL [3] | muscle nuclei loss (MNL) caused by PABPN1-A13 expression [3] | motility in controls [2] | level of acetylation of histone H3 [4] | level of acetylation of histone H4 [4]
1 | Oc1ccc(C=Cc2cc(O)cc(O)c2)cc1 [resveratrol] | did not cause cell toxicity | no effects | slightly decreased cell survival | daf-16 independent and sir-2.1 and aak-2 dependent | enhancement of abnormal motility | no effect in PABPN1-A10 animals | mediated by sir-2.1 and aak-2 | enhanced MNL |  |  | 
2 | CC(NC(=O)c1ccccc1/N=C/c1c(O)ccc2ccccc12)c1ccccc1 (stereo not shown) [sirtinol, 2-[(2-Hydroxynaphthalen-1-yl-methylene)amino]-N-(1-phenethyl)benzamide] |  | no effects | strongly enhanced cell survival | dependent on sir-2.1 and daf-16 | rescued abnormal motility |  | dependent on sir-2.1, daf-16 but not aak-2 | dose-dependent rescue of MNL | no effect detected |  | 
3 | CCCC(=O)[O-].[Na+] [sodium butyrate] |  |  |  |  |  |  |  | strong (the maximal achievable rescue is 28 %) rescue |  | increased | increased
4 | O=C1CCc2c(ccc3ccccc23)O1 [splitomicin, 1,2-Dihydro-3H-naphtho[2,1-b]pyran-3-one] |  |  |  |  | rescued the MNL and abnormal motility | no effect in controls |  | rescued the MNL | no effect in controls |  | 
